Experimental data taken from publication PMC4931907 (eLife, 2016).

Molecular target: T1, p300 HAT domain (residues 1279–1666, Tyr1467Phe) (Homo sapiens, UniProt Q09472, Y1467F)
T1 construct: 6-His (N, cleaved yes); made in house; host or cells: E. coli BL21 (DE3)
T1 sequence (Q09472 1279-1666 Y1467F): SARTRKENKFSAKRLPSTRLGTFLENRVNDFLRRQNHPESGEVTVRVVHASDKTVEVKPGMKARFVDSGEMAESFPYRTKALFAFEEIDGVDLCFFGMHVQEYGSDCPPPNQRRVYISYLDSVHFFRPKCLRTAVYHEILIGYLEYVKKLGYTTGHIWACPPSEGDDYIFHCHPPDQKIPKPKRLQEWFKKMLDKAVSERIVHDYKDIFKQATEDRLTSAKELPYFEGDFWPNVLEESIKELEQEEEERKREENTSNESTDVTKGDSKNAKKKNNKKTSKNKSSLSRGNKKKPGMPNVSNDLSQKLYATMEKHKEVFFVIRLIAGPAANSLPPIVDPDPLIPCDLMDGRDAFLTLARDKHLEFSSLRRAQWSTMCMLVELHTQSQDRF
Assay: Thermal stability assay (SYPRO orange)
Assay type: binding
Settings: p300/acetyl-CoA without salicylate 48.6°C
Procedure: To confirm that salicylate binds to p300, we used thermal stability assays. A p300 HAT domain construct (residues 1279–1666) bearing an inactivating Tyr1467Phe mutation to facilitate purification of homogeneously hypoacetylated p300 was expressed and purified with an N-terminal 6-His tag from E. coli cells. The protein was further purified by chromatography and incubated with increasing concentrations of sodium salicylate for 30 min and with SYPRO orange dye (Invitrogen). Thermal melt curves were obtained by heating the protein from 20–95°C and monitoring fluorescence at 590 nm.
A thermal stability assay was used to assess the binding of salicylate to the p300 HAT domain. A p300 HAT domain construct (residues 1279–1666) bearing an inactivating Tyr1467Phe mutation to facilitate purification of homogeneously hypoacetyalted p300 was cloned into a pET-DUET vector with an N-terminal 6-His tag and expressed in BL21 (DE3) E. coli cells. […]
The final concentration of p300 was 2 μM in reaction buffer (0.1 M HEPES, pH 7.5, 150 mM NaCl, and 5 mM -mercaptoethanol). […] Thermal melt curves were obtained by heating the protein from 20–95°C and monitoring fluorescence at 590 nm with a 7900HT Fast Real Time PCR System (Applied Biosystems). […]

What does the source list for O=C(O)c1ccccc1O [salicylate, salicylic acid]?
Thermal unfolding temperature of p300 HAT domain (10 mM salicylate): 46.1 °C; Thermal unfolding temperature of p300 HAT domain (25 mM salicylate): 40.8 °C
